Source: patent publication US20030181436A1, “Treatment for AIDS, HIV, and other related diseases and compounds for use therewith” (priority 2001, published 2003)

Experiments:
Format in all cases: cell-based
[1] = system: TNFα induced ACH-2 cells (HIV IIIB provirus); test: ACH-2 latent infection assay, supernatant reverse transcriptase activity; design: % VC (percent of virus control): unit not given here; conditions: exp 2
Protocol: (§1) U1 and ACH-2 cells were obtained from the AIDS Research and Reference Reagent Program and maintained under standard culture conditions in RPMI 1640 supplemented with 10% fetal bovine serum (heat inactivated), supplemented with 2 mM […], 100U/ml penicillin and 100 μg/ml, streptomycin. U1 cells were derived from the histocytic leukemia cell line U937, and contain a single integrated copy (HIV IIIB) […] a cytokine and/or phorbol inducible provirus. ACH-2 cells are derived from the A3.01 T lymphoblastic cell line, and contain 2 copies of the HIV IIIB provirus, however only one is cytokine and/or phorbol inducible. Cultures were maintained in such a way as to ensure exponential growth of the populations. At the time of the assay, cells were collected by centrifugation and counted by hemacytometer. If cell viability by Trypan Blue dye exclusion was less than 70% the assay was terminated. The cells were adjusted to 5×10^4 cells/mL and 100 μL, placed in 96 well plates with 100 μL media containing a final concentration of […] TNFα and the test compound. Cultures were incubated for 3 days and supernatants harvested. Compound toxicity was determined by MTS dye reduction. Virus expression was measured by supernatant reverse transcriptasc activity.
(§2) Reverse transcriptase activity was measured in cell-free supernatants. Tritiated thymidine triphosphate (NEN) (TTP) was resuspended in distilled H2O at 5 Ci/mL. Poly rA and oligo dT were prepared as a stock solution which was kept at −20° C. The RT reaction buffer was prepared fresh on a daily basis and consists of 125 μL 1.0 M EGTA, 125 μL dH2O, 110 μL 10% SDS, 50 μL 1.0 M Tris (pH 7.4), 50 μL, 1.0 M DTT, and 40 μL 1.0 M MgCl2. These three solutions were mixed together in a ratio of 2 parts TTP, 1 part poly rA:oligo dT, and 1 part reaction buffer. Ten microliters of this reaction mixture was placed in a round bottom microtiter plate and 15 μL of virus containing supernatant was added and mixed. The plate was incubated at 37° C. in a water bath with a solid support to prevent submersion of the plate and incubated for 60 minutes. Following reaction, the reaction volume was spotted onto pieces of DE81 paper, washed 5 times for 5 minutes each in a 5% sodium phosphate buffer, 2 times for 1 minute each in distilled water, 2 times for 1 minute each in 70% ethanol, and then dried. Opti-Fluor O was added to each sample and incorporated radioactivity was quantitated utilizing a Wallac 1450 Microbetaplus liquid scintillation counter.

[2] = system: TNFα induced U1 cells (HIV IIIB provirus); test: U1 latent infection assay, supernatant reverse transcriptase activity; conditions: exp 2
Protocol: as §1, §2

[3] = system: HIV RoJo (a clinical isolate); test: Chronically infected PBMCs, supernatant reverse transcriptase activity
Protocol: as §2
In these studies PBMCs are infected with HIV RoJo (a clinical isolate) and a dynamic population of infected PBMCs established over a period of 2 to 3 weeks. This population of infected PBMCs was established and maintained by the addition of fresh PBMCs in a 1:1 ratio every 7 days, thus overcoming the lost of PBMCs to normal cell death processes. Thus a population of cells was established that consisted of uninfected cells, short lived infected cells and long lived infected cells. In experiments where AZT was added to prevent re-infection of the population, we typically saw a 50% reduction in infection following a 7 day treatment. This means that 50% of the virus production from the infected […] population was due re-infection. […] Thus there was a population of infected PBMCs present ([…] of the total) which survived for extended periods of time and thus met the definition of being chronically infected.

Substance: Potassium Iodiscorbate [Compound K]
- % VC (percent of virus control) ([1]; 0.00063 uM): 114.4
- RT ACTIVITY (cpm) MEAN ([1]; 0.00063 uM): 22470 cpm
- % VC (percent of virus control) ([1]; 0.002 uM): 98.0
- RT ACTIVITY (cpm) MEAN ([1]; 0.002 uM): 19246 cpm
- % VC (percent of virus control) ([1]; 0.00625 uM): 105.2
- RT ACTIVITY (cpm) MEAN ([1]; 0.00625 uM): 20672 cpm
- % VC (percent of virus control) ([1]; 0.02 uM): 125.7
- RT ACTIVITY (cpm) MEAN ([1]; 0.02 uM): 24682 cpm
- % VC (percent of virus control) ([1]; 0.0625 uM): 119.1
- RT ACTIVITY (cpm) MEAN ([1]; 0.0625 uM): 23403 cpm
- % VC (percent of virus control) ([1]; 0.2 uM): 115.0
- RT ACTIVITY (cpm) MEAN ([1]; 0.2 uM): 22593 cpm
- % VC (percent of virus control) ([1]; 0.625 uM): 97.7
- RT ACTIVITY (cpm) MEAN ([1]; 0.625 uM): 19189 cpm
- % VC (percent of virus control) ([1]; 2 uM): 93.6
- RT ACTIVITY (cpm) MEAN ([1]; 2 uM): 18381 cpm
- % VC (percent of virus control) ([1]; 6.25 uM): 32.7
- RT ACTIVITY (cpm) MEAN ([1]; 6.25 uM): 6432 cpm
- % VC (percent of virus control) ([1]; 20 uM): 15.3
- RT ACTIVITY (cpm) MEAN ([1]; 20 uM): 3011 cpm
- % VC (percent of virus control) ([1]; 62.5 uM): 0.58
- RT ACTIVITY (cpm) MEAN ([1]; 62.5 uM): 113 cpm
- % VC (percent of virus control) ([1]; 200 uM): 0.55
- RT ACTIVITY (cpm) MEAN ([1]; 200 uM): 108 cpm
- % VC ([2]; 0.00063 μM): 112.6%
- RT ACTIVITY (cpm) MEAN ([2]; 0.00063 μM): 3019 cpm
- % VC ([2]; 0.002 μM): 118.4%
- RT ACTIVITY (cpm) MEAN ([2]; 0.002 μM): 3174 cpm
- % VC ([2]; 0.00625 μM): 111.5%
- RT ACTIVITY (cpm) MEAN ([2]; 0.00625 μM): 2989 cpm
- % VC ([2]; 0.02 μM): 98.4%
- RT ACTIVITY (cpm) MEAN ([2]; 0.02 μM): 2640 cpm
- % VC ([2]; 0.0625 μM): 107.1%
- RT ACTIVITY (cpm) MEAN ([2]; 0.0625 μM): 2872 cpm
- % VC ([2]; 0.2 μM): 110.0%
- RT ACTIVITY (cpm) MEAN ([2]; 0.2 μM): 2949 cpm
- % VC ([2]; 0.625 μM): 68.1%
- RT ACTIVITY (cpm) MEAN ([2]; 0.625 μM): 1826 cpm
- % VC ([2]; 2 μM): 81.7%
- RT ACTIVITY (cpm) MEAN ([2]; 2 μM): 2191 cpm
- % VC ([2]; 6.25 μM): 73.2%
- RT ACTIVITY (cpm) MEAN ([2]; 6.25 μM): 1962 cpm
- % VC ([2]; 20 μM): 45.3%
- RT ACTIVITY (cpm) MEAN ([2]; 20 μM): 1216 cpm
- % VC ([2]; 62.5 μM): 29.07%
- RT ACTIVITY (cpm) MEAN ([2]; 62.5 μM): 779 cpm
- % VC ([2]; 200 μM): 17.50%
- RT ACTIVITY (cpm) MEAN ([2]; 200 μM): 469 cpm
- Percent Control by Supernatant Reverse Transcriptase activity ([3]; Day 7, 1 μg/ml): 94 Percent Control
- Percent Control by Supernatant Reverse Transcriptase activity ([3]; Day 7, 5 μg/ml): 87 Percent Control
- Percent Control by Supernatant Reverse Transcriptase activity ([3]; Day 7, 10 μg/ml): 92 Percent Control
- Percent Control by Supernatant Reverse Transcriptase activity ([3]; Day 7, 25 μg/ml): 84 Percent Control
- Percent Control by Supernatant Reverse Transcriptase activity ([3]; Day 7, 50 μg/ml): 70 Percent Control
- Percent Control by Supernatant Reverse Transcriptase activity ([3]; Day 7, 100 μg/ml): 34 Percent Control
- Percent Control by Supernatant Reverse Transcriptase activity ([3]; Day 14, 1 μg/ml): 94 Percent Control
- Percent Control by Supernatant Reverse Transcriptase activity ([3]; Day 14, 5 μg/ml): 57 Percent Control
- Percent Control by Supernatant Reverse Transcriptase activity ([3]; Day 14, 10 μg/ml): 66 Percent Control
- Percent Control by Supernatant Reverse Transcriptase activity ([3]; Day 14, 25 μg/ml): 65 Percent Control
- Percent Control by Supernatant Reverse Transcriptase activity ([3]; Day 14, 50 μg/ml): 56 Percent Control
- Percent Control by Supernatant Reverse Transcriptase activity ([3]; Day 14, 100 μg/ml): 75 Percent Control
- Percent Control by Supernatant Reverse Transcriptase activity ([3]; da 21, 1 μg/ml): 90 Percent Control
- Percent Control by Supernatant Reverse Transcriptase activity ([3]; da 21, 5 μg/ml): 77 Percent Control
- Percent Control by Supernatant Reverse Transcriptase activity ([3]; da 21, 10 μg/ml): 74 Percent Control
- Percent Control by Supernatant Reverse Transcriptase activity ([3]; da 21, 25 μg/ml): 63 Percent Control
- Percent Control by Supernatant Reverse Transcriptase activity ([3]; da 21, 50 μg/ml): 46 Percent Control
- Percent Control by Supernatant Reverse Transcriptase activity ([3]; da 21, 100 μg/ml): 50 Percent Control
- IC50 in chronically infected PBMCs ([3]; day 7): 68 µg/mL
